# Reference: patent publication US11609221B2, “Method for detecting the presence of a contaminant in a liquid” (priority 2017, dated 2023)
# What was measured:
# [1] = tested on: benthic aquatic macroinvertebrates; assay: Toximeter locomotor index monitoring of benthic aquatic macroinvertebrates during contamination episodes; assay type: in vivo, Gammarus fossarum, Erpobdella testacea, Radix auricularia; settings: 100 μg·L^−1, contamination episodes of 20-24 h, even after several episodes; FIG. 3
# Procedure: For the purposes of the present invention, “locomotor index” corresponds to an average distance calculated according to the study context (field or laboratory) over the 10% to 80% of the lowest values of individual distances travelled. The locomotor index is the average of these shortest distances. This locomotor index is calculated on an integration time step that can be chosen between 2 and 120 minutes. The values of distances travelled are squared before the index is calculated, so the locomotive index is expressed in mm^2/unit of time.
# In the examples, only benthic aquatic macroinvertebrates calibrated in terms of size, sex, non-parasitized, from a single population and housing for two weeks in the laboratory are shown. The benthic aquatic macroinvertebrates are placed in a cage under camera monitoring where 16 individuals are placed alone in a volume of 50 mL of water.
# The cage is made of neutral materials (polypropylene) and without the use of toxic products (no glue). These cages (FIG. 1) are connected to a pre-bubbled, thermo-regulated and filtered liquid supply and then circulate in the chamber that receives the effluent at a flow rate of 6 L/h. […]
# [2] = tested on: Daphnia; settings: after 48 h exposure; cited from earlier work
structure (smiles),measurement,setting,value
CNC(=O)ON=C(C)SC [methomyl],time to detect a toxicity of the product (locomotor index),[1],≤ 3 h
same,LC50 in Daphnia,[2],0.028 µg/mL
